Data as given in article PMC9138141, “Design, Spectral Characteristics, Photostability, and Possibilities for Practical Application of BODIPY FL-Labeled Thioterpenoid” (Bioengineering, 2022).

What was measured:
[1] = system: laboratory mice erythrocytes; test: Hemolytic activity (erythrotoxicity); assay type: cell-based; conditions: 20 µM, entire incubation period 5 h, 37 °C, PBS pH 7.4
Experimental: A 0.5% (v/v) suspension of laboratory mice erythrocytes in phosphate-buffered saline (PBS, pH 7.4) was used. The hemolytic activity (erythrotoxicity) of the compounds 2 and 6 was assessed by the degree of erythrocyte hemolysis 1, 3, and 5 h after the addition of solutions of the test compounds in DMSO (final concentration 20 μM). The erythrocyte suspension was incubated in a thermostatic shaker Biosan ES-20 with slow stirring at 37 °C temperature for 5 h. After 1, 3, and 5 h, an aliquot was taken, centrifuged, the degree of hemolysis was determined by the hemoglobin content in the supernatant on a Thermo Spectromic Genesys 20 spectrophotometer at λ = 541 nm. The percentage of hemolysis was calculated relative to the total hemolysis of the sample.

[2] = Electronic absorption spectra in organic solvents; assay type: physicochemical
Experimental: (§1) The absorption and emission spectra of dyes solutions (in the range of 10^−6 to 10^−5 M) were recorded on CM 2203 spectrofluorometer (SOLAR) in a 10 mm of absorbing layer thickness at T = 25 ± 0.1 °C. The fluorescence quantum yield (φ), the fluorescence lifetime (τ), the rate constants of radiative processes (krad), and-radiative deactivation (knr) were obtained to use by the standard procedure. The fluorescence quantum yields (φ) of compounds were measured using the standard method (using standard Rhodamine 6G). The φ and τ errors were 10–15 %. The Stokes shift ( ΔλSt ) was calculated by the formula: […]

[3] = Photobleaching (photodegradation) under UV irradiation at 365 nm; assay type: physicochemical
Experimental: The photofading was carried out in quartz cells. The BODIPY solutions in cyclohexane (toluene, 1-octanol, DMSO with c = ~1·10^−5 mol·L^−1) were irradiated with monochromatic light (mercury lamp 250 W with a light filter Carl Zeiss JENA, at λ = 365 nm and room temperature). The area of the light flux was 2.02 cm^2 at a specific power W365 = 4.04 mW·cm^−2 of the UV lamp. The irreversible bleaching of the luminophores at the absorption peak was monitored as a function of time. The EAS of the dye solution was recorded at equal intervals of irradiation (through 5–20 min) on a spectrofluorometer SM2203 in the 300–600 nm wavelength range. The half-life (t1/2) was defined as the time during which the chromophore is destroyed by 50%. The error in determining of t1/2 is 3–5%.
The observed photooxidation rate constants (kobs) were determined by the equation ln(At/A0) = kobs∙t, where A0 and At are the initial and current optical density at the maximum of the long-wavelength absorption band, respectively, and t is the time of irradiation of the sample with UV light.

[4] = system: laboratory mice erythrocytes; test: Penetration into RBC (fluorescence of hemolysates and of residual medium); assay type: cell-based
Experimental: To assess the rate of penetration of the BODIPY 2 and its conjugate with a thioterpenoid 6 into RBC, the compounds were added to a suspension of erythrocytes (final concentration 20 μM) and incubated in a thermostatic shaker Biosan ES-20 with slow stirring at 37 °C. After 10, 30, and 60 min, an aliquot was taken and centrifuged to separate erythrocytes from the incubation medium containing the BODIPY 2 or conjugate 6. Erythrocytes were washed three times with PBS, hemolyzed by adding H2O, DMSO was added, and the fluorescence spectra of hemolysates were studied using a Fluorat-02-Panorama spectrofluorometer (Lumex, Saint Petersburg, Russia). The binding of the BODIPY 2 or conjugate 6 to cells was judged from the fluorescence intensity of the corresponding compounds in hemolysates. DMSO was added to the medium (PBS) remaining after cell incubation, and the corresponding fluorescence spectra were also analyzed. Its intensity was used to judge the residual content of the studied compounds in PBS.

[5] = Luminescent characteristics (fluorescence) in organic solvents; assay type: physicochemical; conditions: for λmaxfl: λex 470 nm
Experimental: as §1

RBC = test: Uptake by erythrocytes visualized with CytoFLEX; assay type: cell-based, mice; conditions: 0.1 µM, 10 min, 488/521 nm λex/λem
Experimental: The uptake of compounds by erythrocytes was visualized using CytoFLEX SRT (Beckman Coulter) (0.2% suspension of RBC, compound concentration 0.1 μM), exposure time 10 min. Each experiment was carried out in 5–15 replicates. Statistical analysis was conducted using Microsoft Office Excel 2007 software packages. The data represent the mean ± SE.

[6] = Solubility in water / micellar solution (NMR samples); assay type: physicochemical; conditions: DPC micelles, D2O
[7] = range over the solvents studied

## CC1=CC(C)=[N+]2C1=C(CCCC(=O)OCCSC1CC3CCC1(C)C3(C)C)c1c(C)cc(C)n1[B-]2(F)F (stereo not shown) [Compound 6]
[1]
  hemolysis of RBC (erythrotoxicity): did not exceed the spontaneous level
[2]; 1-butanol
  ε, molar absorption coefficient: 66887 L/mol/cm
  λmaxabs S0→S1: 501 nm
  λmaxabs S0→S2: 355–366 nm
[2]; 1-octanol
  ε, molar absorption coefficient: 68275 L/mol/cm
  λmaxabs S0→S1: 501 nm
  λmaxabs S0→S2: 355–363 nm
[2]; 1-propanol
  ε, molar absorption coefficient: 68931 L/mol/cm
  λmaxabs S0→S1: 500 nm
  λmaxabs S0→S2: 356–361 nm
[2]; DMF
  ε, molar absorption coefficient: 70218 L/mol/cm
  λmaxabs S0→S1: 499 nm
  λmaxabs S0→S2: 357–361 nm
[2]; DMSO
  ε, molar absorption coefficient: 68188 L/mol/cm
  λmaxabs S0→S1: 500 nm
  λmaxabs S0→S2: 355–360 nm
[2]; at 498–503 nm, organic solvents, in L/mol·cm
  extinction coefficient ɛ, range: 64,000–78,000
[2]; chloroform
  ε, molar absorption coefficient: 76900 L/mol/cm
  λmaxabs S0→S1: 503 nm
  λmaxabs S0→S2: 352–363 nm
[2]; cyclohexane
  ε, molar absorption coefficient: 75390 L/mol/cm
  λmaxabs S0→S1: 502 nm
  λmaxabs S0→S2: 357–362 nm
[2]; ethanol
  ε, molar absorption coefficient: 64235 L/mol/cm
  λmaxabs S0→S1: 498 nm
  λmaxabs S0→S2: 359–361 nm
[2]; toluene
  ε, molar absorption coefficient: 78830 L/mol/cm
  λmaxabs S0→S1: 503 nm
  λmaxabs S0→S2: 352–360 nm
[3]; DMSO compared to cyclohexane
  increase of photodegradation (photooxidation) efficiency in DMSO: > 10 times
[3]; UV irradiation
  increase of photostability compared to the meso-unsubstituted analog: ~ 2 times
[3]; studied solvents
  half-life increase / photodestruction rate constant decrease compared to 7: 1.5–2.2 times
[4]; 20 μM, 10, 30, 60 min incubation, RBC washed three times with PBS
  penetration into erythrocytes (fluorescence of RBC hemolysates): actively penetrates erythrocytes
[4]; 20 μM, 60 min incubation, PBS
  absorption by RBC from the incubation medium (decline of supernatant fluorescence): more intensively than the initial BODIPY 2
[5]; 1-butanol
  ΔλSt, Stokes shift: 15 nm
  φ, fluorescence quantum yield: 0.884
  λmaxfl: 516 nm
[5]; 1-octanol
  ΔλSt, Stokes shift: 13 nm
  φ, fluorescence quantum yield: 0.941
  λmaxfl: 514 nm
[5]; 1-propanol
  ΔλSt, Stokes shift: 14 nm
  φ, fluorescence quantum yield: 0.861
  λmaxfl: 514 nm
[5]; DMF
  ΔλSt, Stokes shift: 16 nm
  φ, fluorescence quantum yield: 0.833
  λmaxfl: 515 nm
[5]; DMF and DMSO compared to cyclohexane
  increase of nonradiative deactivation constant knr: 200–300 times
[5]; DMSO
  ΔλSt, Stokes shift: 15 nm
  φ, fluorescence quantum yield: 0.763
  λmaxfl: 515 nm
[5]; at 514–519 nm, organic solvents
  fluorescence quantum yield φ, range: 76–100%
[5]; chloroform
  ΔλSt, Stokes shift: 14 nm
  φ, fluorescence quantum yield: 0.878
  λmaxfl: 517 nm
[5]; cyclohexane
  ΔλSt, Stokes shift: 13 nm
  φ, fluorescence quantum yield: 0.999
  λmaxfl: 515 nm
[5]; electron-donating media
  fluorescence quenching: 16–24%
[5]; ethanol
  ΔλSt, Stokes shift: 16 nm
  φ, fluorescence quantum yield: 0.857
  λmaxfl: 514 nm
[5]; ethanol, 1-propanol, 1-butanol, 1-octanol
  increase of fluorescence quantum yield in the homologous series of alcohols: ~ 8%
[5]; [7]
  constants of radiative processes (krad): 5.96–8.33 × 10^7 s^−1
  fluorescence lifetime: 10.2–16.0 ns
[5]; toluene
  ΔλSt, Stokes shift: 16 nm
  φ, fluorescence quantum yield: 0.867
  λmaxfl: 519 nm
[5]; λex = 470 nm, all solvents
  emission band maxima λmaxfl, range: 510–519 nm
RBC
  relative content of BODIPY-positive cells: more than an order of magnitude higher

## CC1(C)C2CC=C(CO)C1C2 (stereo not shown) [myrtenol]
[6]
  solubility in the micellar solution: better solubility
